Reference: patent US20220030850A1, “CRYOPRESERVATIVE COMPOSITIONS AND METHODS” (REGENTS OF THE UNIVERSITY OF MINNESOTA, priority 2015, published 2022)

How the values were obtained:
[1] = tested on: Jurkat cells; assay: Raman microscopy cell penetration study of cryoprotectants; format: cell-based; details: for Penetration: Raman microscopy, at room temperature and at freezing temperatures; for location of cryoprotectant in Raman contrast image: Jurkat cells frozen in either glycerol or trehalose, FIG. 12
Experimental: Raman microscopy data provides an indication of the location of action of each cryopreservative. The images in FIG. 12 show Jurkat cells frozen in either glycerol (penetrating) or trehalose (non-penetrating).
These experiments were performed for most of the components described in the sections above both at room temperature and at freezing temperatures to assess whether penetration was temperature dependent.
Confocal Raman Microspectroscopy (CRM) measurements are conducted using Witec Confocal Raman Microscope System Alpha 300R (WITec, Wissenschaftliche Instrumente und Technologie GmbH, Ulm, Germany) with UHTS300 spectrometer and DV401 CCD detector. A wavelength of 532 nm Nd:YAG laser and 10 mW of power is used as excitation source. The laser is transferred to the microscopy in a singer fiber. A 100× air objective (NA 0.90; Nikon Instruments, Melville, N.Y.) is used for focusing the 532 nm excitation laser to the sample. Data collection and analysis are performed by Windows-based WitecControl_1.38 software.

[2] = target: lysozyme (Gallus gallus, UniProt P00698); assay: Differential scanning calorimetry, denaturation temperature of lysozyme in osmolyte solution; format: physicochemical; details: 1 mg/ml lysozyme in 20 mM HEPES buffer; single osmolytes 600 mM; heated at 1° C./min; pH 7.3
Experimental: Lysozyme powder was dissolved into each solution reaching final concentration of 100 mg/ml and then refrigerated. Lysozyme in DPBS solution was used as control. For DSC measurements, experiment solution was made by dissolving osmolyte into 20 mM HEPES buffer and the concentration of osmolyte in each solution remained same as in DPBS solution. Lysozyme powder was dissolved into each solution reaching final concentration of 1 mg/ml and kept refrigerated. Lysozyme in HEPES buffer was used as control. The pH of solutions was 7.3 measured by Beckman 350 meter. Differential scanning calorimetry was performed on a differential scanning calorimeter (Q1000, TA Instruments, New Castle, Del.). Osmolyte solutions containing lysozyme were heated in order to determine the denaturation temperature of lysozyme. Experimental solutions were heated from room temperature to 90° C. at 1° C./min. Specific heat, Cp, was calculated from the heat flow data assuming Cp as a function of temperature were analyzed using OriginPro software (OriginLab Corp., Northampton, Mass.) to subtract curve baseline. The midpoint temperature, Tm, was obtained as the temperature corresponding to the maximum specific heat value from the baseline and the denaturation temperature was assumed to be Tm^32.

[3] = tested on: MSCs; assay: High throughput factorial screening with Linear Mixed Effects statistical analysis of recovery; format: cell-based, human; details: for correlation with recovery: statistical analysis
Experimental: (§1) In another evaluation, cells were combined with factorial combinations of the components listed in Table 5, using one component from each category. Plates including cells and solutions were frozen at cooling rates of 1′C/min, 3′C/min, 5′C/min, or 10′C/min.
(§2) Recovery was calculated by dividing the number of live cells post thaw—calculated using a control curve correlating calcein-acetoxymethyl (AM) fluorescence to cell count—by the number of live cells seeded pre-freeze (AO/PI counts taken prior to freezing). Recovery was normalized by dividing by the DMSO recovery on each plate, then multiplying by a standard DMSO recovery for each cooling rate. This normalized recovery was used to compare samples between different plates and different cooling rates.
(§3) Statistical analysis of the data was performed using a Linear Effects Model. The model associated with best fit was determined using Bayesian Information Criteria. […] The ten best combinations for Jurkats are summarized in Table 6 below, while the eight best combinations for MSCs are summarized in Table 7.
To assess the importance of the four explanatory variables of interest (Sugar, Rate, Additive and Alcohol), without neglecting the variation between each batch and between each plate within the batches, we sought to find the best Linear Mixed Effects (LME) model. With yi the i'th outcome of the response, Xi the corresponding values of the covariates, the LME model is defined as
To select the most fitting model, we performed backward elimination based on the Bayesian Information Criterion (BIC) starting with a model that includes all variables and second order interactions. Furthermore, we included two random variables, one to catch the effect of the batch, and one to catch the effect of each plate within the batch—i.e., the full model is: […]

[4] = tested on: Jurkat cells; assay: as above; format: cell-based; details: for correlation with recovery: statistical analysis, data not shown
Experimental: as §1, §2, §3
High throughput factorial screening experiments were performed on a Biomek Beckman FX 96 liquid handling robot. Briefly, 12.5 μl of an array of additives were transferred to nine 96-well plates containing 12.5 μl of different sugar alcohols. Cells (25 μl) diluted in either a sugar (in a solution of NORMOSOL-R; Hospira, Inc., Lake Forest, L) or a NORMOSOL-R blank solution were transferred to these nine plates to give a final volume of 50 μl in each well. Cells suspended in […] in media were also included as a row of each plate to serve as normalization wells for plate-to-plate comparison.
When all plate volume transfers were complete, silicone plate covers were used to seal each plate, and plates were transferred to a controlled rate freezer (Kryo 10 Series III, Planer PLC, Middlesex, United Kingdom) and frozen at cooling rates ranging from 1° C./min to 10° C./min. The concentrations of components present in solution are listed in Table 11, and were selected based on values described in literature or solubility limits. Component concentrations were 0 if not listed in a solution.
Plate samples were also assessed for viability using fluorescence. Briefly, a solution of calcein-AM/propidium iodide was prepared and a volume of 50 μl was added to each sample well of experimental 96-well plates, producing a 1:1 dilution. Plates were protected from light and placed in an incubator for 30 minutes to allow for calcein-AM digestion. A fluorescent plate reader (Synergy HT, BioTek Instruments, Inc., Winooski, Vt.) was used to determine the fluorescence in each well, which was correlated to live and dead cell counts using a control curve.
Viability was calculated for all samples by dividing the number of live cells by the number of total cells. Recovery was calculated directly by dividing the number of live cells post thaw by the number of live cells pre-freeze. Recovery for 96-well plate samples was further normalized; each experimental sample recovery was divided by the DMSO recovery on the same plate, and then multiplied by the standard DMSO recovery for the cooling rate of each experiment.
To assess the importance of the four explanatory variables of interest (Sugar, Rate, Additive and Alcohol), without neglecting the variation between each batch and between each plate within the batches, we sought to find the best Linear Mixed Effects (LME) model. […]

[5] = tested on: Jurkat cells; assay: 96-well plate freezing, post-thaw scaled raw recovery (calcein-AM/PI); format: cell-based; details: 150, 300, 600 mM total sugar; FIG. 8
Experimental: The first phase of this study involved using the DE algorithm to develop a three-component cryopreservation solution used at a single cooling rate (1° C./min). Three components (trehalose, glycerol, and ectoine (TGE)) were selected as components of the exemplary freezing medium used for preservation of Jurkat cells, a hematopoietic model cell type, based on pre-screening of multiple non-DMSO components. For this single cooling rate study, the DE algorithm was programmed to output 18 vector solutions per generation with a weight=0.85 and a crossover=1. Jurkat cells cryopreserved in 10% DMSO at a cooling rate of 1° C./min were used as a control.
Cooling rate influences cell survival, and the preferred cooling rate for a given application can depend, at least in part, on the composition of the freezing medium and the cell type being frozen. […] To assess both cooling rate and the composition of the solution, the DE algorithm was programmed to output 27 vector solutions per generation with weight=0.85 and a crossover=1. Solutions were separated into categories based on their DE algorithm defined cooling rate, and were frozen in batches at a cooling rate of […], 0.5° C./min, 1° C./min, 3° C./min, 5° C./min, or 10° C./min. Results were normalized and scaled raw recovery is reported, allowing results from all cooling rates and all generations to be compared directly. […]
After 96 well plates were thawed, calcein-acetoxymethyl (AM)/propidium iodide was added to each well and the wells were covered from light and placed in a 37° C. incubator for 30 minutes to allow the live cells to cleave calcein-AM. The plates were then analyzed for fluorescence on a plate reader. Raw fluorescence values were used to calculate the number of live and dead cells present in each well by correlating to a control curve of unfrozen cells. The live cell recovery was calculated by dividing the number of live cells present in thawed samples (calcein-AM plate reader fluorescence) by the number of live cells seeded pre-freeze (AO/PI counts). […]

[6] = statistical analysis of sugar and cooling rate

Chain of lysozyme (P00698 19-147): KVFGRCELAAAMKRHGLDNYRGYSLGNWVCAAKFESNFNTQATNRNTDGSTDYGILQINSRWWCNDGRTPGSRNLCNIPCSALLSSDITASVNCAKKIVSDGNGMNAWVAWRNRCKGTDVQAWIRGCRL

Penetration [1]	Structure (SMILES)	correlation with recovery [3]	other results
Yes	C[C@H](N)C(=O)O [Alanine]	–	–
Yes	CC1=NCC[C@@H](C(=O)O)N1 [Ectoine]	–	Denaturation temperature Tm of lysozyme [2]: 79.6 °C
Yes	O=C(CO)[C@@H](O)[C@H](O)[C@H](O)CO [Fructose]	–	–
Yes	OCC(O)CO [Glycerol]	positively correlated	location of cryoprotectant in Raman contrast image [1]: present both inside the cell and in the super cooled liquid surrounding the cell
Yes	O[C@H]1[C@H](O)[C@@H](O)[C@H](O)[C@@H](O)[C@H]1O [Inositol]	–	–
Yes	OC[C@@H](O)[C@@H](O)[C@H](O)[C@H](O)CO [Mannitol]	–	–
Yes	O=C(O)[C@@H]1CCCN1 [Proline]	negatively correlated	correlation with recovery [4]: negatively correlated
Yes	NCCS(=O)(=O)O [Taurine]	–	–
Semi*	OC[C@H]1O[C@H](O[C@H]2O[C@H](CO)[C@@H](O)[C@H](O)[C@H]2O)[C@H](O)[C@@H](O)[C@@H]1O [Trehalose]	–	recovery of Jurkat cells, sugar synergy study [5]: outperformed monosaccharides; location of cryoprotectant in Raman contrast image [1]: excluded from the cell; cooling rate at which cells performed better with the sugar [4, 6]: 5° C./min; cooling rate at which cells performed better with the sugar [3, 6]: 10° C./min
Yes	CC(C)[C@H](N)C(=O)O [Valine]	negatively correlated	–
Yes	OC[C@@H](O)[C@H](O)[C@@H](O)CO [Xylitol]	–	–
–	OC[C@@H](O)[C@@H](O)CO [erythritol]	negatively correlated	correlation with recovery [4]: negatively correlated
–	OC[C@@H](O)[C@@H](O)[C@@H](O)CO [ribitol]	negatively correlated	correlation with recovery [4]: negatively correlated

Structure (SMILES)	Penetration [1]	correlation with recovery [3]	other results
OCCO [Ethylene glycol]	Yes	–	–
OC[C@@H](O)[C@@H](O)[C@H](O)[C@@H](O)CO [Sorbitol]	Yes	positively correlated	Denaturation temperature Tm of lysozyme [2]: 83.1 °C
